The values that follow come from paper PMC12344264, “Mechanistic, in-silico and in vitro studies with nitrofurans reveal potent leishmanicidal activity and inhibition of trypanothione reductase” (International Journal for Parasitology: Drugs and Drug …, 2025).

Data set [1] can be described thus: Cytotoxicity in primary splenocytes, alamarBlue, 72 h. Type of data set: cell-based. The note with it: mouse. As to the method:
(§1) For cytotoxicity tests, several mammalian cell lines were used. […] Primary cell cultures were also used to evaluate cytotoxicity. […] BMDM cells were differentiated for one week with 30 % […] from L929 cell line.
(§2) The in vitro cytotoxicity of the selected nitrofurans was evaluated in HepG2, RAW 264.7 cells, splenocytes and BMDM. In each well of a 96-well microtitre plate, 100 μL containing 10,000 HepG2 or RAW 264.7 cells were incubated for 24h at 37 °C and 5 % CO2 to allow the cells to settle. For primary cells, 100 μL containing 100,000 BMDM or 1,000,000 splenocytes were added to each well. Subsequently, […] of one-half serial dilutions of each compound diluted in DMEM (for HepG2 cells), RPMI medium (for RAW cells), splenocyte medium (for splenocytes) or BMDM medium supplemented with 10 % GM-CSF (for BMDM), were added to each well. The cytotoxic effect of the compounds was measured after 72 h of incubation at 37 °C and 5 % CO2. For this purpose, a 10 % (v/v) of the alamarBlue™ cell viability reagent (Invitrogen, Fisher Scientific International Inc., Pittsburgh, PA, USA) was added, and the reaction was incubated for 4 h at 37 °C and 5 % CO2. Fluorescence was measured using a Varioskan Lux spectrophotometer (ThermoFisher Scientific, Waltham, MA, USA). Positive controls consisting of 0.1 % (v/v) H2O2, and negative controls, consisting of 0.1 % (v/v) DMSO, were also included on each plate.
(§3) All experiments were carried out in triplicate and included at least three technical replicates. […] The SI was calculated from the CC50/EC50 ratio.

In a further data set the target is T1, L. donovani TryR (Leishmania donovani, UniProt P39050).
T1 construct: endogenous in cells; host or cells: L. donovani-iRFP (LV9) axenic amastigotes, crude cell extract
T1 sequence (P39050 whole entry): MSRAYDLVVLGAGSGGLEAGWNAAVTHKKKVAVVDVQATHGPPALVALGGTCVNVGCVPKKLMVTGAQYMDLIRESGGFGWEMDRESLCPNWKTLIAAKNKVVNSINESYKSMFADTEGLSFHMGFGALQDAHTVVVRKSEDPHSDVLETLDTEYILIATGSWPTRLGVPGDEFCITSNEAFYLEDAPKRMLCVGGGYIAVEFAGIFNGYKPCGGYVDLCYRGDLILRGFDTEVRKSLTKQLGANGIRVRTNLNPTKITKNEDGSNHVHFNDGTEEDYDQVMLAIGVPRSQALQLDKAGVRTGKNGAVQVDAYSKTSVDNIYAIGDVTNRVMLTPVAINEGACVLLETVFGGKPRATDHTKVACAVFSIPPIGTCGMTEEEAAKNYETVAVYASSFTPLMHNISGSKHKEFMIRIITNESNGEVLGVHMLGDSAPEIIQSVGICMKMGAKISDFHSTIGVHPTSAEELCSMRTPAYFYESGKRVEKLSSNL
The data set can be described thus: biochemical. As to conditions: for Type of inhibition: Lineweaver-Burk double reciprocal plot, varying T[S]2. As to the method: The activity of L. donovani TryR was measured in the presence of different concentrations of nitrofurans according to the protocol previously described ([Melcón-Fernández et al., 2023]). Briefly, 1 × 10^10 L. donovani-iRFP axenic amastigotes were washed twice in PBS and lysed with a solution containing 1 mM EDTA, 40 mM HEPES, 50 mM Tris HCl pH 7.5, 2 % (v/v) Triton X-100 and Pierce™ Protease Inhibitors Mini Tablets (ThermoFisher Scientific, Waltham, MA, USA). Cell extracts were prepared by mechanical disruption of the cells with 0.5 mm diameter glass beads (Merck, Darmstadt, Germany) and the supernatant obtained by centrifugation at 10,000 rcf for 5 min at 4 °C was used to measure TryR activity in 96-well plates. […] Cell extracts diluted in Tris HCl pH 7.5 (0.43 μg of total protein in 50 μL) were added to launch the reaction. The negative control consisted of 2.5 % DMSO, whereas the blank reaction included the TryR assay solution without T [S]2. […] To determine steady-state conditions, enzymatic activity was measured at 412 nm (ε = 14,150 M^−1 cm^−1) for a period of up to 120 min (with 5 min intervals) at 26 °C in a Varioskan Lux spectrophotometer (ThermoFisher Scientific, Waltham, MA, USA). The experiment was carried out in triplicate and included three technical replicates.

The nature of data set [2]: Cytotoxicity in bone marrow-differentiated macrophages, alamarBlue, 72 h. Type of data set: cell-based. As to conditions: mouse. As to the method:
as §1, §2, §3

Data set [3] is described as follows: Cytotoxicity, alamarBlue, 72 h. Type of data set: cell-based, murine. The note with it: mouse. As to the method: as §1, §2, §3
Data set [4] in a line: Cytotoxicity, alamarBlue, 72 h. Type of data set: cell-based. As to conditions: human. Here is the method:
as §1, §2, §3

Data set [5] concerns L. donovani-iRFP intramacrophage amastigotes. The data set can be described thus: Ex vivo antileishmanial effect on intramacrophage amastigotes (infected murine splenocytes, iRFP fluorescence, 72 h). Type of data set: cell-based. The note with it: Leishmania donovani, Splenocyte. Here is the method: (§4) For efficacy studies, L. donovani-iRFP, a genetically modified strain of L. donovani LV9 constitutively expressing the gene encoding the infrared fluorescent protein (iRFP) ([Melcón-Fernández et al., 2023]), was used. This strain was grown as promastigotes in Schneider's insect medium (Sigma-Aldrich, Merck, Darmstadt, Germany) supplemented with 20 % (v/v) foetal bovine serum (FBS) (Gibco, ThermoFisher Scientific, Waltham, MA, USA) and […] antibiotic cocktail (100 U/mL penicillin and 100 μg/mL streptomycin) (Hyclone, ThermoFisher Scientific, Waltham, MA, USA) at 26 °C until mice were infected ([Carballeira et al., 2016]). Axenic and intramacrophage amastigotes were isolated from six-to eight-week-old female Balb/c mice (see below) that had been infected intraperitoneally with 1.5 × 10^9 metacyclic L. donovani-iRFP promastigotes. To obtain axenic amastigotes, bone marrow was extracted from the femur and tibia of 8- to 10-week-old infected mice and passed through a 100 μm cell strainer. After centrifugation at 3500 rcf for 10 min at room temperature, cell suspensions were resuspended in medium containing 15 mM KCl; 136 mM KH2PO4; 10 mM K2HPO4.3H2O; 0.5 mM MgSO4.7H2O; 24 mM NaHCO3; 22 mM glucose; 1 mM glutamine, 1 × RPMI 1640 vitamin mix (Sigma-Aldrich, Merck, Darmstadt, Germany), 10 mM folic acid, 100 mM adenosine, 1 × RPMI amino acid mix (Sigma-Aldrich, Merck, Darmstadt, Germany), 5 mg/mL hemin, 25 mM 2-morpholinoethanesulfonic acid (MES) pH 5.6, supplemented with 10 % FBS (Gibco, ThermoFisher Scientific, Waltham, MA, USA) and antibiotic cocktail, and incubated at 37 °C and 5 % CO2. To obtain intramacrophage amastigotes, spleens from infected Balb/c mice were cut into pieces, ground with 2 mg/mL collagenase D (Merck, Darmstadt, Germany) and passed through a 100 μm cell strainer. The splenocyte-enriched cell suspension containing intramacrophage amastigotes was resuspended in RPMI medium (Gibco, Fisher Scientific International Inc., Pittsburgh, PA, USA) supplemented with 20 % FBS, 1 mM sodium pyruvate, 24 mM NaHCO3, 2 mM L-glutamine, 1 × RPMI vitamins, 25 mM HEPES pH 7.2 and antibiotic cocktail ([Ashok et al., 2016]).
(§5) The antileishmanial effect of the nitrofurans selected in this study was tested both in vitro on axenic L. donovani-iRFP amastigotes and ex vivo on intramacrophage amastigotes according to previously published methods ([Melcón-Fernández et al., 2023], [2024]; [Andrés-Rodríguez et al., 2024]). Assays were performed in a final volume of […] containing 20,000 axenic amastigotes or a number of L. donovani-iRFP-infected murine splenocytes representing 150,000 relative fluorescence units (RFU), in each well of a black 384-well microtiter plate with optical bottom. In addition, 40 μL of one-half serial dilutions of each compound in amastigotes culture medium (for axenic amastigotes) or in supplemented RPMI medium (for intramacrophage amastigotes) were added to each well. Positive (amphotericin B at a final concentration of 18 μM) and negative (0.1 % v/v DMSO) controls were included on each plate. The plates were incubated at 37 °C and 5 % CO2 for a maximum of 72 h. Fluorescence emitted by viable L. donovani-iRFP was measured on an Odyssey infrared imaging system (Li-Cor, NE, USA).
as §3

In data set [6] the test system is L. donovani-iRFP axenic amastigotes. In words: Antileishmanial effect on axenic amastigotes (iRFP fluorescence viability, 72 h). The note with it: Leishmania donovani. Type of data set: cell-based. Here is the method:
as §4, §5, §3

The test system is the same in data set [7]. In words: ROS production by axenic amastigotes (DCFH-DA, flow cytometry). Type of data set: cell-based, Leishmania donovani. Here is the method: To assess ROS production in L. donovani-iRFP, axenic amastigotes were treated with nitrofurans at the concentration equivalent to their EC50 calculated in viability experiments. As positive control of oxidative stress induction, cultures were treated with 0.01 % H2O2 (v/v), whereas 0.03 % (v/v) DMSO was added as negative control. After an incubation period of 3 h at 37 °C, cells were harvested by centrifugation at 3500 rcf for 10 min, washed in phosphate-buffered saline (PBS), centrifuged again and resuspended in PBS. Cells were labeled with 5 μM 2′,7′-dichlorofluorescein diacetate (DCFH-DA, MedChemExpress) for 30 min at 37 °C. Then, cells were centrifuged at 3500 rcf for 5 min, washed, and resuspended in PBS. The cell suspension was stored at 4 °C until the analysis by flow cytometry, which was performed in a CytoFLEX SRT (Beckman Coulter). The experiment was carried out in triplicate and included three technical replicates.

A further data set deals with L. major. Also noted: method as in Domínguez-Asenjo et al., 2021. As to conditions: ref Domínguez-Asenjo et al., 2021; cited from earlier work.
Another data set concerns Leishmania. Also noted: method as in Domínguez-Asenjo et al., 2021. The note with it: oral administration, spleen and liver; ref Domínguez-Asenjo et al., 2021; cited from earlier work.
[8] abbreviates: compound at its axenic EC50, 3 h.
Where [9] appears, read: positive control 0.01 % (v/v), 3 h.

As to `CC(=O)OC(OC(C)=O)c1ccc([N+](=O)[O-])o1` [5-nitro-2-furaldehide diacetate, 5-Nitro-2-furaldehyde diacetate], the CC50 at 72 h in data set [1] is 11 ± 0.28 µM; in data set [2], 11.9 ± 0.46 µM; in data set [3], 15.6 ± 1.27 µM; in data set [4], 24.1 ± 0.59 µM. Besides, the inhibition constant (Ki) at L. donovani TryR worked out at 77.2 ± 21.9 µM. Besides, the Type of inhibition entry on L. donovani TryR is “Uncompetitive”. In addition, the results for the half-maximal effective concentration (EC50) in data set [5] and in data set [6] were 4.6 ± 0.26 µM and 3.48 ± 0.09 µM, respectively. Besides, the “Negative ROS (unstressed population)” value in data set [7] (setting [8]) is recorded as 31.1%. Further, the “Positive ROS (stressed population)” value in data set [7] (setting [8]) is given as 68.9%.
`O=C1OCCN1/N=C/c1ccc([N+](=O)[O-])o1` [Furazolidone]: at L. donovani TryR, the Ki was 13.7 ± 2.76 µM and the Type of inhibition result is on record as “Uncompetitive”. For the same compound, the midpoint of the response in [5], the EC50, lay at 0.09 ± 0.004 µM. A half-maximal response in data set [6] (EC50) required 0.17 ± 0.01 µM. Moreover, in data set [7] (setting [8]), the “Negative ROS (unstressed population)” value came out at 45.9% and the “Positive ROS (stressed population)” value came out at 54.1 ± 5.8%. Moreover, the “Positive ROS (stressed population)” value in data set [7] (compound at its axenic EC50, 3 h, listed as FURAZOLIDONE) was 54.1%.
Take `OO` [H2O2]: in data set [7] (setting [9]), the “Negative ROS (unstressed population)” value was determined as 28.5% and the “Positive ROS (stressed population)” value stood at 71.5%.
For `CSCC1CN(/N=C/c2ccc([N+](=O)[O-])o2)C(=O)O1` (stereo not shown) [Nifuratel], in the data set on L. major, the “outcome in cutaneous leishmaniasis model” value is recorded as “complete remission”. Further, the “reduction of parasite load” value in the data set on Leishmania is > 70%.
Regarding `CC1CS(=O)(=O)CCN1/N=C/c1ccc([N+](=O)[O-])o1` (stereo not shown) [Nifurtimox], the CC50 at 72 h in [1] (72 h, alamarBlue, uninfected mice, read-out: Splenocytes CC50) amounted to 37.8 ± 6.12 µM; in data set [2] (72 h, alamarBlue, uninfected mice, read-out: BMDM CC50), 60.2 ± 4.79 µM; in data set [3] (RAW 264.7 cells, 72 h, alamarBlue, read-out: RAW 264.7 cells CC50), 50.5 ± 2.25 µM; in [4] (HepG2 cells, 72 h, alamarBlue, read-out: HepG2 cells CC50), 84.9 ± 12.4 µM. The compound also came in with a Ki on L. donovani TryR of 33.5 ± 6.93 µM. Moreover, the Type of inhibition entry at L. donovani TryR is “Uncompetitive”. Besides, the EC50 in data set [5] came to 1 ± 0.07 µM; in [6], 3.96 ± 0.37 µM. For the same compound, the “Negative ROS (unstressed population)” value in [7] (setting [8]) came to 31.9%. In addition, the “Positive ROS (stressed population)” value in data set [7] (setting [8]) is 68.1%.
